Key:
[1] = tested on: sclerodermatous cGvHD in BALB/c (H-2d) mice; experiment: Murine sclerodermatous chronic graft-versus host disease (cGvHD); assay type: in vivo; conditions: 10 mg/kg b.i.d., day 21 to day 56 post transplantation
Source text: 5.10. Murine Sclerodermatous Chronic Graft-Versus Host Disease (cGvHD)
In this cGvHD model, fibrosis is induced in BALB/c (H-2d) mice by allogeneic transplantation of bone marrow cells and splenocytes from B10.D2 (H-2d) donor mice (minor HLA mismatch). The recipient mice develop inflammation-driven dermal and pulmonary fibrosis resembling patients with rapidly progressive diffuse cutaneous systemic sclerosis. (Zerr et al., 2012)
The treatment is provided only after the onset of first clinical symptoms of sclerodermatous cGvHD. […]
The anti-fibrotic effects on skin were analysed by determination of dermal thickness, quantification of lesional collagen and staining for myofibroblasts.
In case of positive effects on skin fibrosis, effects on pulmonary fibrosis were analysed by Ashcroft scoring, by hydroxyproline content and by quantification of the collagen covered area using SirCol staining.
Based on individual animal raw data, the means for each group were determined and percent change from disease controls was calculated. Treatment groups were compared to disease controls using a one-way analysis of variance (1-way ANOVA) with a Dunnett's post-hoc analysis for measured (parametric) data or a Kruskal-Wallis test with a Dunn's post-hoc analysis for scored (non-parametric) data.

[2] = tested on: MIA induced inflammatory hypersensitivity to pain; experiment: MIA rat pain model (weight bearing); assay type: in vivo, Male Sprague Dawley
Source text: 5.11.1. Principle of the Assay
The mono-iodoacetate (MIA) model has become a standard model established by Van der Kraan (van der Kraan et al., 1989) for modelling joint disruption in OA in rat.
Intra-articular injection of MIA in rodents reproduces OA-like lesions and functional impairment that can be analyzed and quantified. MIA is an inhibitor of […], disrupting cellular glycolysis and eventually resulting in cell death (van der Kraan et al., 1989).
The MIA pain mouse model described by Pitcher et al. (Pitcher et al. 2016) is used to evaluate the effect of a test compound against tactile allodynia by intra-articular injection of MIA causes chondrocyte cell death, leading to cartilage degeneration and subsequent subchondral bone alterations such as appearance of bone osteophytes (Janusz et al., 2001).
MIA is the one most often used, particularly to test the efficacy of pharmacologic agents to treat pain, as this model generates a reproducible, robust, and rapid pain-like phenotype that can be graded by altering MIA dosage.
Male Sprague Dawley (250-300 g) were housed at 22±1° C. and in light-controlled environment (lights on from 7 am to 8 pm) with ad libitum access to food and water.
Inflammatory hypersensitivity to pain was induced by an injection of Monosodium Iodoacetate (MIA) 25 ul 80 mg/ml solution, into the left knee joint. Animals developed inflammatory response within 3 days post MIA.
The test compounds were administered to the treatment groups on a […] basis, starting from day 3 (D3), and continued until the end-point day on D28.
On day 3, weight-bearing measurements were taken and animals ranked and randomized to treatment groups.
On the test days, pre-dose allodynia was evaluated prior to dosing, and the effects of the administered compounds assessed 2 hours post dosing.
The test compounds were administered to the treatment groups on daily basis, according to treatment group, (some were dosed days 3-7 post MIA, and some were dosed days 24-28 post MIA) and 2 hours post dosing weight-bearing measurements were taken.
The negative control group (n=6) was daily dosed per os with the vehicle (methylcellulose, MC 0.5%), the positive control group (n=10) was daily dosed per os with Celecoxib (50 mg/kg), and the test compound group (n=10) was daily dosed per os, with 0.5% MC/Solutol for days 3-7 post MIA (Inflammatory Phase). […]
For each readout, mean and sem are calculated. A difference statistically significant between intact or treated groups and in MIA vehicle group is evaluated with Prism software using a Two-way ANOVA (for treatment groups) followed by a Dunnett's multiple comparisons post-hoc test. *: p<0.05; **: p<0.01; ***: p<0.001 versus MIA Vehicle group.

COc1cn2nc(CCC(C)(C)O)cc2cc1NC(=O)c1cccn(C2CC2)c1=O [Compound 1, 1-cyclopropyl-N-[2-(3-hydroxy-3-methylbutyl)-6-methoxypyrazolo[1,5-a]pyridin-5-yl]-2-oxopyridine-3-carboxamide]
effect on Lung fibrosis (Ashcroft, SirCol) [1]: statistically significant effect | effect on skin fibrosis (Hydroxyproline) [1]: statistically significant effect | reversal of inflammatory response on weight bearing ([2]; 5 mg/kg daily per os, days 5-7): significantly reversed the inflammatory response | reversal of inflammatory response on weight bearing ([2]; 5 mg/kg daily per os, days 26-28): significantly reversed the inflammatory response | reversal of inflammatory response on weight bearing ([2]; 30 mg/kg daily per os, days 3-7): significantly reversed the inflammatory response | reversal of inflammatory response on weight bearing ([2]; 30 mg/kg daily per os, days 26-28): significantly reversed the inflammatory response

Reference: patent publication US20220218679A1, “NOVEL COMPOUNDS AND PHARMACEUTICAL COMPOSITIONS THEREOF FOR THE TREATMENT OF INFLAMMATORY DISORDERS” (Galapagos NV, priority 2019, published 2022)
